The text below walks through data of PMC8624133, “10th Trends in Medical Mycology Held on 8 to 11 October 2021, Aberdeen, Scotland, Organized by the European Confederation of Medical Mycology (ECMM)” (Journal of Fungi, 2021).

SMILES strings stand for the structures. In brackets after ≈: the same amount, converted by molar mass. Where two headings read alike, the source gives them in different places.

The subject of data set [1] is C. auris. Briefly: EUCAST EDef 7.3.1 MIC and checkerboard microdilution. The class given is cell-based, Candida auris. How it is done: Methods: We studied 22 C. auris isolates obtained from different clinical samples from the Hospital La Fe, Valencia, Spain (eight from blood culture, seven from oropharynx and seven from urine cultures). Candida parapsilosis ATCC 22019 and Candida krusei ATCC 6258 were used as quality controls. The minimum inhibitory concentration (MIC) was determined according to the European Committee on Antibiotic Susceptibility Testing (EUCAST) EDef 7.3.1 document. The interaction between citral and the rest of antifungal drugs was assessed by a checkerboard microdilution method. […] The in vitro interaction of the drug combinations was interpreted in terms of the fractional inhibitory concentration index (FICI) as follows: FICI < 1, synergistic; FICI equal to 1, additive; and FICI > 1, indifferent or antagonistic.

Data set [2] relates to C. glabrata. Briefly: Candidemia Netherlands, MIC distributions against EUCAST ECOFF. The class given is cell-based, Candida glabrata.
For data set [3], the system named is R. delemar 99–880. Briefly: CLSI M38 in vitro susceptibility. Format: cell-based, Rhizopus delemar. Particulars: Rhizopus delemar, read-out: MIC at 100% inhibition of growth. The method, then: Methods & Materials: In vitro susceptibility was conducted by the CLSI M38 method using a clinical isolate of Rhizopus delemar (a common cause of mucormycosis). ICR mice were immunosuppressed with cyclophosphamide and cortisone acetate on days −2, +3, and +8, relative to infection with intratracheally instilled R. delemar. […] Mice survival through Day +21 served as the primary endpoint.

Data set [4] concerns Aspergillus spp. isolates. Kind of data set: Gradient strip susceptibility (Liofilchem). The settings on record: for isolates with in vitro high MIC values: first isolate per species and patient. Format: cell-based.
Data set [5] relates to McLDM strains. Kind of data set: EUCAST MIC, S. cerevisiae overexpressing M. circinelloides LDM, resistance phenotypes. The class given is cell-based, Saccharomyces cerevisiae.
Data set [6] relates to Cryptococcal isolates. Briefly: CLSI broth micro dilution. Format: cell-based, Cryptococcus neoformans, C. gattii.
For data set [7], the system named is C. fermentati. Kind of data set: EUCAST E. Def 7.3.2 microdilution. The settings on record: n = 2. Format: cell-based, Candida fermentati. (In general: In broth dilution the organism is exposed to a series of concentrations in liquid medium.)
For data set [8], the system named is A. flavus complex. Particulars: n = 6, EUCAST clinical breakpoints.
In data set [9] the test system is A. fumigatus veterinary isolates. Kind of data set: EUCAST microdilution of veterinary isolates. The class given is cell-based, Aspergillus fumigatus. The method, then:
All have been confirmed as A. fumigatus by MALDI-TOF MS using the BCCM/IHEM database. The antifungal susceptibility was evaluated using the microdilution EUCAST method. Cyp51A gene sequencing has been performed on all resistant isolates.

Data set [10] relates to Parathyridaria percutanea. Kind of data set: In vitro antifungal susceptibility. The class given is cell-based.
For data set [11], the system named is A. fumigatus isolates. Briefly: AFST by EUCAST method and direct inoculation of spore suspensions.
Protocol: Material/methods: We used two methods for AFST: In the standard “EUCAST method”, AFST was performed using spores from a maturated colony. In the “direct inoculation method”, AFST was performed using the spore suspensions that were either stored or sent from other laboratories directly without a subculturing phase. Three groups of isolates were analyzed. […] Spore suspensions were prepared and AFST was performed daily after storing the isolates for 4 days at room temperature, and after 4 days for spore suspensions stored at 2–4 °C and at 28 °C. All measurements were performed in triplicate. Group II, retrospective analysis: 50 isolates that were sent to our laboratory as spore suspensions were tested using the direct inoculation method and stored at −70 °C in glycerol broth. The stored isolates were revived and AFST was repeated using the EUCAST method. Group III: prospective analysis: 30 isolates that were sent to our laboratory as spore suspensions were tested using the direct inoculation method and simultaneously using the EUCAST methods without storage at −70 °C. MICs based on the EUCAST and direct inoculation methods were compared.
Data set [12] relates to A. fumigatus strains. Briefly: EUCAST E.DEF 9.3.2 broth microdilution. Format: cell-based, Aspergillus fumigatus. Also noted: MIC Range: unit not given beside the values; MIC50 / MIC90: unit not given here. How it is done:
Methods: The research was conducted on 29 A. fumigatus strains. Minimum inhibitory concentrations (MIC) were detected by broth microdilution method (BM) following EUCAST definitive document E.DEF 9.3.2 and E-test in accordance with manufacturer instructions.

The subject of data set [13] is A. niger complex. Briefly: EUCAST E.Def 9.3.2 susceptibility, CPA isolates. Particulars: n = 7, ECOFFs. Format: cell-based, Aspergillus niger complex.
Data set [14] deals with Asp. fumigatus. Kind of data set: Triazole resistance agar screening, four-well plate. The settings on record: RPMI agar, 1 µg/mL, 7 isolates.
Protocol: All the isolates were identified phenotypically. […] Fungal spores were suspended in normal saline (0.85%) and adjusted to 0.5 McFarland and 50 μL was plated in each well. […] Plates were incubated at 35–37 °C for 72 h in ambient air. The presence or absence of growth was observed visually at 24 h, 48 h, and 72 h.
The test system of data set [15] is McLDM-F5-CPR. Kind of data set: microbe, parasite or virus in culture. Format: cell-based, Saccharomyces cerevisiae AD2Δgal. The settings on record: Saccharomyces cerevisiae, read-out: mean MIC.
The test system of data set [16] is C. auris III.8 and TAC1/MRR1 deletion strains. The class given is cell-based, Candida auris.
A short description of data set [17]: Therapeutic drug monitoring of VRC plasma levels. Format: in vivo, human. The method, then:
Materials & Methods: Patients are aged over 18 years and given antifungal therapy between January 2019–November 2020 in the Hacettepe University Hospitals were included. The study was approved by the University Clinical Research Ethics Committee. Demographics and antifungal treatment periods of the patients were analyzed retrospectively. As of January 2020, VRC plasma levels had started to be analyzed on a weekly basis in the study setting. Plasma VRC levels (target range: 1–5.5 mg/L) were measured by using liquid chromatography—triple quadrupole mass spectrometer (Shimadzu LCMS-8040). The impact of TDM on appropriateness of VRC treatment were evaluated by the numbers of treatment switch and the use of oral route.

Data set [18] concerns Candida lipolytica. Briefly: CLSI M44 agar diffusion. Format: cell-based. (A growth-free zone around the sample is the usual read-out of agar diffusion tests.)
Data set [19] deals with Aspergillus tubingensis. Briefly: EUCAST susceptibility. The class given is cell-based. The settings on record: read-out: MIC. The method, then:
The fungus was identified as Aspergillus niger and liposomal amphotericine B was switched to anidulafungin pending susceptibility testing as the patient had pre-existing […] (eGFR CKD-EPI 40 mL/min/1.73 m²). […] Despite increasing the anidulafungin dosage to 200 mg daily and adequate voriconazol levels, serum galactomannan levels remained elevated (index 2.1 at discharge). […] Since no extracardiac sources were found and the patient did well clinically, they were discharched. Anidulafungin was switched to caspofungin to facilitate ongoing IV treatment in the outpatient setting. […] The patient died shortly after. Obduction was not performed.

The test system of data set [20] is C. albicans. Kind of data set: In vitro fluconazole susceptibility, neonatal invasive candidiasis. The class given is cell-based, Candida albicans.
For data set [21], the system named is C. blankii. Briefly: Vitek 2 fungal susceptibility card. The class given is cell-based, Candida blankii.
Data set [22] concerns environmental yeasts from a lagoon. Briefly: organism not typed. The class given is cell-based.
The mark [23] stands for this setting: III.8 tac1a/tac1b strain vs parental.
[24] abbreviates: III.8 tac1a/tac1b/mrr1 strain vs parental.

As to `C[C@@H]1[C@H](O)[C@@H](C)/C=C/C=C/C=C/C=C/C=C/C=C/C=C/[C@H](O[C@@H]2O[C@H](C)[C@@H](O)[C@H](N)[C@@H]2O)C[C@@H]2O[C@](O)(C[C@@H](O)C[C@@H](O)[C@H](O)CC[C@@H](O)C[C@@H](O)CC(=O)O[C@H]1C)C[C@H](O)[C@H]2C(=O)O` [amphotericin B], the “MIC of amphotericin B in combination with citral” value in [1] was determined as 0.016 µg/mL. The MIC in data set [1] (Candidozyma auris, 22 clinical isolates) stood at 0.25 µg/mL. The “isolates within the wildtype distribution range” value in data set [2] is reported as 98.6%. Moreover, the MIC in data set [3] was 0.06 µg/mL (≈ 0.0649 µM). The “isolates with in vitro high MIC values” in data set [4] worked out at 19.6%. Moreover, the MIC in data set [4] (gradient strips, ten isolates (5 A. terreus, 3 A. flavus, 1 A. fumigatus, 1 A. nidulans)) is given as > 32 mg/L. Moreover, the “MICs compared to AD2Δ” value in data set [5] is given as “not affected”. Also, in data set [6], the “MIC50” value worked out at 0.25 µg/mL (≈ 0.271 µM) and the “MIC90” value turned out to be 0.5 µg/mL (≈ 0.541 µM). In addition, in data set [7], the GM was determined as 0.125 µg/mL and the “MIC Range” value lay in the range of 0.125 to 0.25 µg/mL.
Consider `CCC(C)n1ncn(-c2ccc(N3CCN(c4ccc(OCC5COC(Cn6cncn6)(c6ccc(Cl)cc6Cl)O5)cc4)CC3)cc2)c1=O` (centres unmarked) [itraconazole], for which the isolates resistant in data set [8] is 17%. Moreover, in [9], the “isolates with values equal to the clinical breakpoint” value turned out to be 33% and the resistance of isolates result is given as “No resistance”. In addition, the “in vitro susceptibility category” value in [10] is recorded as “resistance”. The MIC in data set [11] (Aspergillus fumigatus, Group II, 5 strains, direct inoculation method) was in the range of 2 to 4 µg/mL (≈ 2.83 to 5.67 µM). In [11] (Aspergillus fumigatus, Group II, the same 5 strains, EUCAST method), this compound yielded an MIC of 0.5 to 1 µg/mL (≈ 0.709 to 1.42 µM). For the same compound, the “MICs compared to AD2Δ” value in data set [5] was “not affected”. In data set [12] (28 h), the MIC50 is on record as 0.5 and the MIC90 is given as 0.5. In [12] (28 h, 29 strains), the “MIC Range” value is on record as 0.5–8. In data set [12] (48 h), the MIC50 was 0.5, the MIC90 was 1 and the “MIC Range” value is 0.5–16. Further, in [13], the Non-wild type isolates came out at 29%.
Take `C[C@@H](c1ncncc1F)[C@](O)(Cn1cncn1)c1ccc(F)cc1F` [voriconazole]: the “isolates in the area of technical uncertainty (ATU)” value in data set [9] turned out to be 47%. Moreover, the “isolates with growth only in voriconazole well, n (%)” value is recorded as 0 in [14] (48 h) and 3 (42.85) in [14] (72 h). The MIC in [11] (Aspergillus fumigatus, Group I, one resistant isolate) was 2 to 4 µg/mL (≈ 5.73 to 11.5 µM); in [11] (Group III, one isolate, EUCAST methods), 2 µg/mL (≈ 5.73 µM); in data set [11] (Group III, the same isolate, direct inoculation), 1 µg/mL (≈ 2.86 µM); in data set [15], 4 µg/mL (≈ 11.5 µM); in data set [16] (III.8 tac1a/tac1b strain), 1 µg/mL (≈ 2.86 µM); in data set [16] (III.8 tac1a/tac1b/mrr1 strain), 0.5 µg/mL (≈ 1.43 µM). In addition, the MIC turned out to be 2 µg/mL (≈ 5.73 µM) in [16] (parental III.8 isolate) and 1 µg/mL (≈ 2.86 µM) in [19]. Moreover, the “isolates with in vitro high MIC values” in data set [4] is 1.9%. Moreover, the MIC decrease is on record as 2 fold in data set [16] (III.8 mrr1 strain vs parental), 2 fold in data set [16] (setting [23]) and 4 fold in data set [16] (setting [24]). Besides, in data set [17] (88 levels in 34 patients, LC-MS), the “median plasma level (range)” value was 4.2 (0.2–18.1) mg/L. In addition, the “Adverse effects, n (%)” value in [17] (Subtherapeutic (<1 mg/L)) is on record as 0 (0.0); in [17] (Supratherapeutic (>5.5 mg/L)), 4 (13.8); in [17] (Therapeutic (1–5.5 mg/L)), 0 (0.0). Also, in data set [17] (all at supratherapeutic levels), the VRC-related adverse effects entry was “Four”. For the same compound, in data set [17] (n = 88), the “plasma levels at subtherapeutic range (<1 mg/L), n (%)” value is on record as 14 (15.9%). Moreover, the “plasma levels at supratherapeutic range (>5.5 mg/L), n (%)” value in data set [17] (n = 88) was 29 (33.0%). Further, in data set [17] (n = 88), the “plasma levels at therapeutic range (1–5.5 mg/L), n (%)” value is recorded as 45 (51.1%). This compound also registered a resistant isolates in data set [18] of 58%. Further, the MIC50 was determined as 0.5 in data set [12] (28 h) and 1 in data set [12] (48 h). Further, the figures for the MIC90 in data set [12] (28 h) and in data set [12] (48 h) were 1 and 2, respectively. Also, the “MIC Range” value in data set [12] (28 h, 29 strains) is 0.25–4; in data set [12] (48 h) it was 0.25–8. The Non-wild type isolates in data set [13] is 29%.
In the case of `OC(Cn1cncn1)(Cn1cncn1)c1ccc(F)cc1F` [fluconazole], the “isolates within the wildtype distribution range” value in [2] is 83.6%. Further, in data set [10], the “in vitro susceptibility category” value is given as “resistance”. For the same compound, in data set [20], the dose-dependent susceptible pathogens is listed as 0%. Also, the “in vitro resistant pathogens” value in data set [20] was found to be 7%. Further, the susceptibility entry in [21] is on record as “resistant”. The MIC in data set [15] is 128 µg/mL (≈ 418 µM); in data set [16] (III.8 tac1a/tac1b/mrr1 strain), 128 µg/mL (≈ 418 µM); in data set [16] (parental III.8 isolate), 512 µg/mL (≈ 1670 µM); in data set [22] (range, read-out: MIC of resistant-like isolates), 64 to 2050 µg/mL. Besides, the MIC decrease is on record as 2 fold in [16] (III.8 mrr1 strain vs parental), 2 fold in data set [16] (setting [23]) and 4 fold in data set [16] (setting [24]). In [6], the “MIC50” value was 1 µg/mL (≈ 3.27 µM). Also, in data set [6], the “MIC90” value came out at 4 µg/mL (≈ 13.1 µM). In [18] ([…], discs 25 μg fluconazole, 1 μg voriconazole), this compound came in with a resistant isolates of 67%. In data set [7], the GM was determined as 2 µg/mL. In data set [7], the “MIC Range” value is 2 µg/mL (≈ 6.53 µM). The “isolates classified as resistant-like” value in [22] (number of 71 yeasts, MIC at or above Candida breakpoint) was “Fifty-five”.
